Experimental data taken from patent US6569809B1, “Package-mix agricultural chemical compositions having improved stability” (Monsanto Company, priority 1999, dated 2003).

What was measured:
[1] = tested on: inutade (Polygonum longisetum); assay: Greenhouse tank-mix study, herbicidal effectiveness (Table 1); format: in vivo; conditions: glyphosate 2160 g a.e./ha + flumioxazin 0 g/ha
Description: (§1) Tank-mix studies have shown that addition of a relatively small amount of flumioxazin to glyphosate alleviates both the above-mentioned disadvantages. Data from a tank-mix study in a greenhouse illustrating the benefit of simultaneous application of glyphosate+flumioxazin over a higher rate of glyphosate alone are presented in Table 1. Herbicide rates are given in grams per hectare (g/ha); rates shown for glyphosate (which was applied in this study as the isopropylammonium salt) are expressed as acid equivalent (a.e.). Herbicidal effectiveness is measured as percent inhibition by comparison with untreated plants, based on visual assessment by a technician trained in the art of making such assessments, at four times, namely 3, 7, 20 and 27 days after treatment (DAT). Data are presented for two dicotyledonous weed species, “inutade” (Polygonum longisetum) and “tsuyukusa” (Commelina communis), that are known to tolerate high rates of glyphosate.

[2] = tested on: tsuyukusa (Commelina communis); assay: as above; format: in vivo; conditions: glyphosate 2160 g a.e./ha + flumioxazin 0 g/ha
Description: as §1

[3] = Adsorption of glyphosate by colloidal hydrophilic silica (HPLC of supernatant); format: physicochemical; conditions: 23% a.e. aqueous solution of glyphosate isopropylammonium salt, 20° C., 16 hours
Description: Where the water-soluble active ingredient is a salt of the herbicide glyphosate, it was initially feared that addition of colloidal hydrophilic silica might reduce herbicidal effectiveness by adsorption of glyphosate to the silica. A test was therefore conducted to determine the degree of adsorption of glyphosate by the highest concentration of colloidal hydrophilic silica likely to be used in a composition of the invention, i.e. 5% by weight, and by even higher concentrations.
The procedure for this test is to add a weighed amount of Aerosil™ COK-84 colloidal hydrophilic silica to a measured volume of glyphosate isopropylammonium salt solution of known concentration (23% a.e. by weight) in a stoppered glass bottle and agitate gently at a temperature of 20° C. for 16 hours. The solution is then centrifuged to deposit the silica, leaving a clear supematant. The supernatant is analyzed for glyphosate by HPLC. The amount of adsorption is calculated from the reduction in glyphosate concentration in the supernatant solution by comparison with the initial concentration.

[4] = Chemical degradation of flumioxazin in contact with aqueous salt solution
[5] = at 20° C.; cited from earlier work
[6] = Solubility of flumioxazin in organic solvents

Row | SMILES | percent inhibition ([1]; 3 DAT) [%] | percent inhibition ([1]; 7 DAT) [%] | percent inhibition ([1]; 20 DAT) [%] | percent inhibition ([1]; 27 DAT) [%] | percent inhibition ([2]; 3 DAT) [%] | percent inhibition ([2]; 7 DAT) [%] | percent inhibition ([2]; 20 DAT) [%] | percent inhibition ([2]; 27 DAT) [%] | glyphosate adsorption ([3]; silica concentration 10%) [%] | glyphosate adsorption ([3]; silica concentration 20%) [%] | rate of chemical degradation ([4]; benzyl acetate as the organic solvent, compared with phenylxylylethane) | chemical degradation ([4]; composition of the invention, aqueous phase mono(isopropylammonium) glyphosate pH about 4.5 to about 5, even at elevated temperatures) | chemical degradation ([4]; exposed to a concentrated aqueous salt solution such as a solution of glyphosate salt for prolonged periods) | rate of degradation ([4]; pH of the aqueous phase raised (addition of a base or dibasic salt of glyphosate)) | specific gravity [5] | solubility in organic solvent ([6]; benzyl acetate) | solubility in organic solvent ([6]; phenylxylylethane)
1 | O=C(O)CNCP(=O)(O)O [glyphosate, N-phosphonomethylglycine] | 0 | 0 | 45 | 70 | 0 | 0 | 50 | 62 | 12 | 40 |  |  |  |  |  |  | 
2 | C#CCN1C(=O)COc2cc(F)c(N3C(=O)C4=C(CCCC4)C3=O)cc21 [flumioxazin, 2-[7-fluoro-3,4-dihydro-3-oxo-4-(2-propynyl)-2H-1,4-benzoxazin-6-yl]-4,5,6,7-tetrahydro-1H-isoindole-1,3(2H)-dione] |  |  |  |  |  |  |  |  |  |  | much more rapid | insignificant | undergo chemical degradation | significant increase | 1.51 | rather soluble | only very sparingly soluble
